32 molecules from paper PMC10683028 (Journal of Medicinal Chemistry, 2023) can be followed below.

The conditions of series [1]: pH 7.4.
Procedure: Test compounds were prepared as 0.5 mM solutions in 50:50 acetonitrile:water and analyzed by reversed-phase HPLC-UV (wavelength 254 nm) using a Phenomenex Luna C18 100 Å 150 × 4.6 mm 5 μm column with a gradient of aqueous phase (50 mM ammonium acetate, pH 7.4) and mobile phase (acetonitrile) as described.[41],[42]
Another series in a line: in vitro. Particulars: PAMPA, pH 7.4.
The conditions of series [2]: mouse.
Procedure: Murine pharmacokinetic studies were performed exactly as reported.[40]

Where two headings read alike, the source gives them in different places.

Procedure for in vitro: In vitro ADME experiments were performed exactly as reported.[38]−[40]

In turn, `O=C(NCCc1ccccc1)c1nc(-c2ccccc2)no1` [compound 4, 3-Phenyl-N-(2-phenylethyl)-1,2,4-oxadiazole-5-carboxamide] registered a CHI-logDpH7.4 in series [1] of 3.2.

Usually Papp stands for a coefficient for how fast a substance crosses the barrier. Turning to `COc1ccc(-c2noc(C(=O)NCCc3cccnc3)n2)cc1OC` [compound 5, 3-(3,4-Dimethoxyphenyl)-N-[2-(3-pyridyl)ethyl]-1,2,4-oxadiazole-5-carboxamide], the CHI-logDpH7.4 in series [1] is reported as 1.8. In the series “in vitro”, this molecule gave a Papp of 7.7 ×10⁻⁶ cm/s.

In “in vitro”, `COc1ccc(-c2noc(C(=O)NCCc3ccc(C(=O)O)cc3)n2)cc1OC` [compound 6, 4-[2-[[3-(3,4-Dimethoxyphenyl)-1,2,4-oxadiazole-5-carbonyl]amino]ethyl]benzoic Acid] returned a Papp of 0.6 ×10⁻⁶ cm/s.

In the case of `COc1ccc(-c2noc(C(=O)NCC(C)(C)c3ccccc3)n2)cc1OC` [compound 7, 3-(3,4-Dimethoxyphenyl)-N-(2-methyl-2-phenyl-propyl)-1,2,4-oxadiazole-5-carboxamide], the CHI-logDpH7.4 in series [1] was found to be 3.7.

As for `COc1ccc(-c2noc(C(=O)NC[C@H](C)c3ccccc3)n2)cc1OC` [compound 8, 3-(3,4-Dimethoxyphenyl)-N-[(2R)-2-phenylpropyl]-1,2,4-oxadiazole-5-carboxamide], in series [1], the CHI-logDpH7.4 is 3.3. The molecule also yielded a Papp in the series “in vitro” of 5.5 ×10⁻⁶ cm/s.

In the case of `COc1ccc(-c2noc(C(=O)NCCc3ccc(C(N)=O)cc3)n2)cc1OC` [compound 11, N-[2-(4-Carbamoylphenyl)ethyl]-3-(3,4-dimethoxyphenyl)-1,2,4-oxadiazole-5-carboxamide], the CHI-logDpH7.4 in series [1] turned out to be 1.7. Moreover, the Papp in “in vitro” stood at 2.9 ×10⁻⁶ cm/s.

Turning to `CNC(=O)c1ccc(CCNC(=O)c2nc(-c3ccc(OC)c(OC)c3)no2)cc1` [compound 12, 3-(3,4-Dimethoxyphenyl)-N-[2-[4-(methylcarbamoyl)phenyl]ethyl]-1,2,4-oxadiazole-5-carboxamide], the CHI-logDpH7.4 in series [1] stood at 1.8. For the same molecule, in the series “in vitro”, the Papp was 4.8 ×10⁻⁶ cm/s.

Turning to `COc1ccc(-c2noc(C(=O)NCCc3ccc(C(=O)N4CCC4)cc3)n2)cc1OC` [compound 14, N-[2-[4-(Azetidine-1-carbonyl)phenyl]ethyl]-3-(3,4-dimethoxyphenyl)-1,2,4-oxadiazole-5-carboxamide], the CHI-logDpH7.4 in series [1] came to 2.1. For the same molecule, the apparent permeability coefficient (Papp) in the series “in vitro” was 7.1 ×10⁻⁶ cm/s.

What is called Vdss is a proportionality between amount in the body and measured concentration, not a real space. Low values mean confinement near the circulation, high ones extensive tissue distribution. What is called Cmax is the peak of the concentration-time curve. By Tmax is commonly meant the time at which the peak concentration occurs. Molecule `COc1ccc(-c2noc(C(=O)NCCc3ccc(C(=O)N4CC(OC)C4)cc3)n2)cc1OC` [compound 15, 3-(3,4-Dimethoxyphenyl)-N-(4-(3-methoxyazetidine-1-carbonyl)phenethyl)-1,2,4-oxadiazole-5-carboxamide] displayed a CHI-logDpH7.4 in series [1] of 2.1. Also, in series [2] (IV 3 mg/kg), the “AUC0–480” value came to 56 µg·min/mL, the T1/2 was 18 min and the Vdss is recorded as 1.1 L/kg. Also, in series [2] (PO 200 mg/kg), the “AUC0–480” value was 48 µg·min/mL, the Cmax is listed as 151 ng/mL, the F stood at 1.5% and the Tmax was found to be 120 min.

On to `COc1ccc(-c2noc(C(=O)NCCc3ccc(C(=O)N4CC(F)C4)cc3)n2)cc1OC` [compound 16, 3-(3,4-Dimethoxyphenyl)-N-(4-(3-fluoroazetidine-1-carbonyl)phenethyl)-1,2,4-oxadiazole-5-carboxamide], for which, in series [1], the CHI-logDpH7.4 was 2.2. In “in vitro”, this molecule showed a Papp of 8.5 ×10⁻⁶ cm/s.

In series [1], `COc1ccc(-c2noc(C(=O)NCCc3ccc(C(=O)N4CC(F)(F)C4)cc3)n2)cc1OC` [compound 17, N-(4-(3,3-Difluoroazetidine-1-carbonyl)phenethyl)-3-(3,4-dimethoxyphenyl)-1,2,4-oxadiazole-5-carboxamide] had a CHI-logDpH7.4 of 2.6. In “in vitro”, this molecule showed a Papp of 6.3 ×10⁻⁶ cm/s.

In series [1], `COc1cccc(CCNC(=O)c2nc(-c3ccc(OC)c(OC)c3)no2)c1` [compound 19, 3-(3,4-Dimethoxyphenyl)-N-[2-(3-methoxyphenyl)ethyl]-1,2,4-oxadiazole-5-carboxamide] had a CHI-logDpH7.4 of 2.9.

On to `COc1ccc(-c2noc(C(=O)NCCc3ccc(C(=O)N4CCC4)nc3)n2)cc1OC` [compound 25, N-(2-(6-(Azetidine-1-carbonyl)pyridin-3-yl)ethyl)-3-(3,4-dimethoxyphenyl)-1,2,4-oxadiazole-5-carboxamide], for which the CHI-logDpH7.4 in series [1] was found to be 1.9. Further, the Papp in “in vitro” is 5.4 ×10⁻⁶ cm/s.

On to `COc1ccc(-c2noc(C(=O)NC(C#N)Cc3ccc(C(=O)N4CCC4)cc3)n2)cc1OC` (centres unmarked) [compound 33, N-(2-(4-(Azetidine-1-carbonyl)phenyl)-1-cyanoethyl)-3-(3,4-dimethoxyphenyl)-1,2,4-oxadiazole-5-carboxamide], for which, in series [1], the CHI-logDpH7.4 was found to be 2.1. Further, the Papp in “in vitro” was determined as 2.8 ×10⁻⁶ cm/s.

For the molecule `COc1ccc(-c2noc(C(=O)NC(C#N)Cc3ccccc3)n2)cc1OC` (centres unmarked) [compound 38, N-(1-Cyano-2-phenylethyl)-3-(3,4-dimethoxyphenyl)-1,2,4-oxadiazole-5-carboxamide], the CHI-logDpH7.4 in series [1] is 3.1. This molecule also had a Papp in “in vitro” of 7.2 ×10⁻⁶ cm/s.

The molecule `COc1ccc(CCNC(=O)c2nc(-c3ccc(OC)c(OC)c3)no2)cc1OC` [compound 50, 3-(3,4-dimethoxyphenyl)-N-[2-(3,4-dimethoxyphenyl)ethyl]-1,2,4-oxadiazole-5-carboxamide] displayed a CHI-logDpH7.4 in series [1] of 2.5. For the same molecule, the Papp in the series “in vitro” was 7.4 ×10⁻⁶ cm/s.

As to `COc1ccc(CCN(C)C(=O)c2nc(-c3ccc(OC)c(OC)c3)no2)cc1OC` [compound 51, 3-(3,4-Dimethoxyphenyl)-N-[2-(3,4-dimethoxyphenyl)ethyl]-N-methyl-1,2,4-oxadiazole-5-carboxamide], the CHI-logDpH7.4 in series [1] was 2.6.

As to `COc1ccc(-c2noc(CNCCc3ccccc3)n2)cc1OC` [compound 53, N-[[3-(3,4-Dimethoxyphenyl)-1,2,4-oxadiazol-5-yl]methyl]-2-phenyl-ethanamine], the CHI-logDpH7.4 in series [1] amounted to 2.9.

In the case of `COc1ccc(-c2noc(C(=O)NCCc3ccc(C(=O)N4CCC4)cc3)n2)cc1F` [compound 61, N-(4-(Azetidine-1-carbonyl)phenethyl)-3-(3-fluoro-4-methoxyphenyl)-1,2,4-oxadiazole-5-carboxamide], in series [1], the CHI-logDpH7.4 came to 2.6.

`COc1cc(-c2noc(C(=O)NCCc3ccc(C(=O)N4CCC4)cc3)n2)ccc1F` [compound 62, N-(4-(Azetidine-1-carbonyl)phenethyl)-3-(4-fluoro-3-methoxyphenyl)-1,2,4-oxadiazole-5-carboxamide] had a CHI-logDpH7.4 in series [1] of 2.6.

Consider `O=C(NCCc1ccc(C(=O)N2CCC2)cc1)c1nc(-c2ccc3nc[nH]c3c2)no1` [compound 63, N-(4-(Azetidine-1-carbonyl)phenethyl)-3-(1H-benzo[d]imidazol-6-yl)-1,2,4-oxadiazole-5-carboxamide], for which, in series [1], the CHI-logDpH7.4 came out at 1.3. Also, the Papp in the series “in vitro” was 0.7 ×10⁻⁶ cm/s.

`O=C(NCCc1ccc(C(=O)N2CCC2)cc1)c1nc(-c2ccc3ccoc3c2)no1` [compound 64, N-(4-(Azetidine-1-carbonyl)phenethyl)-3-(benzofuran-6-yl)-1,2,4-oxadiazole-5-carboxamide] came in with a CHI-logDpH7.4 in series [1] of 2.5. In “in vitro”, the Papp came to 7 ×10⁻⁶ cm/s.

The molecule `O=C(NCCc1ccc(C(=O)N2CCC2)cc1)c1nc(-c2ccc3cc[nH]c3c2)no1` [compound 65, N-(4-(Azetidine-1-carbonyl)phenethyl)-3-(1H-indol-6-yl)-1,2,4-oxadiazole-5-carboxamide] yielded a CHI-logDpH7.4 in series [1] of 2.3. The Papp in the series “in vitro” is 4.4 ×10⁻⁶ cm/s.

In series [1], `O=C(NCCc1ccc(C(=O)N2CCC2)cc1)c1nc(-c2ccc3cn[nH]c3c2)no1` [compound 66, N-(4-(Azetidine-1-carbonyl)phenethyl)-3-(1H-indazol-6-yl)-1,2,4-oxadiazole-5-carboxamide] gave a CHI-logDpH7.4 of 1.6. In “in vitro”, this molecule gave a Papp of 5.5 ×10⁻⁶ cm/s.

In turn, `COc1cccc(-c2noc(C(=O)NCCc3ccc(C(=O)N4CCC4)cc3)n2)c1` [compound 67, N-(4-(Azetidine-1-carbonyl)phenethyl)-3-(3-methoxyphenyl)-1,2,4-oxadiazole-5-carboxamide] gave a CHI-logDpH7.4 in series [1] of 2.4. Also, in the series “in vitro”, the Papp is 10.1 ×10⁻⁶ cm/s.

Take `COc1ccc(-c2noc(C(=O)NCCc3ccc(C(=O)N4CC(OC)C4)cc3)n2)cc1OC1CCC1` [compound 78, 3-[3-(Cyclobutoxy)-4-methoxy-phenyl]-N-[2-[4-(3-methoxyazetidine-1-carbonyl)phenyl]ethyl]-1,2,4-oxadiazole-5-carboxamide]: in series [1], the CHI-logDpH7.4 is listed as 2.9.

`COc1ccc(-c2noc(C(=O)NCCc3ccc(C(=O)N4CC(OC)C4)cc3)n2)cc1OC1CC1` [compound 79, 3-(3-Cyclopropoxy-4-methoxyphenyl)-N-(4-(3-methoxyazetidine-1-carbonyl)phenethyl)-1,2,4-oxadiazole-5-carboxamide] registered a CHI-logDpH7.4 in series [1] of 2.6. This molecule registered a Papp in “in vitro” of 4.6 ×10⁻⁶ cm/s.

For the molecule `COc1ccc(-c2noc(C(=O)NCCc3ccc(C(=O)N4CC(OC)C4)cc3)n2)cc1OCC1(O)CC1` [compound 80, 3-(3-((1-Hydroxycyclopropyl)methoxy)-4-methoxyphenyl)-N-(4-(3-methoxyazetidine-1-carbonyl)phenethyl)-1,2,4-oxadiazole-5-carboxamide], in series [2] (IV 3 mg/kg), the “AUC0–480” value is 81 µg·min/mL, the T1/2 came out at 24 min and the Vdss is 0.9 L/kg. In series [2] (PO 10 mg/kg), the “AUC0–480” value was 4 µg·min/mL, the Cmax was found to be 61 ng/mL, the F was 1.5% and the Tmax was 30 min.

`COc1ccc(-c2nc(C(=O)NCCc3ccccc3)no2)cc1OC` [compound 90, 5-(3,4-Dimethoxyphenyl)-N-phenethyl-1,2,4-oxadiazole-3-carboxamide] yielded a CHI-logDpH7.4 in series [1] of 2.9.

Take `COc1ccc(-c2n[nH]c(C(=O)NCCc3ccc(C(=O)N4CCC4)cc3)n2)cc1OC` [compound 101, N-(4-(Azetidine-1-carbonyl)phenethyl)-3-(3,4-dimethoxyphenyl)-1H-1,2,4-triazole-5-carboxamide]: the CHI-logDpH7.4 in series [1] is on record as 1.3.

Regarding `COc1ccc(CCNC(=O)c2nc(-c3ccccc3)no2)cc1OC` [compound 107], the CHI-logDpH7.4 in series [1] is recorded as 2.8.

As for `COc1ccc(-c2noc(C(=O)NCCN3CCOCC3)n2)cc1OC` [compound 108], in series [1], the CHI-logDpH7.4 turned out to be 1.4.
